Assay results taken from patent publication US12648979B2, “Compositions comprising sulforaphane or a sulforaphane precursor and Moringa plant components” (Nutramax Laboratories, Inc., priority 2021, dated 2026).

Legend:
myrosinase = experiment: Equimolar conversion of glucoraphanin to sulforaphane by myrosinase, HPLC (Example 4); type: biochemical, broccoli
Description: A two-part experiment was conducted to further elucidate the role of ascorbic acid in modulating myrosinase activity. All solutions were prepared in 20 mM Tris-buffered saline, at pH 7.5, previously identified as an optimal for myrosinase activity; each sample tube had 100 mg of freeze-dried broccoli powder accurately weighed in as a source of myrosinase. Experiment was conducted at 38° C. for 2 hours, with sample aliquots removed in 30-minute increments, and both glucoraphanin and sulforaphane content assessed by HPLC. […] A control sample contained no ascorbic acid, and the enzymatic conversion proceeded unassisted by a co-factor. PART 1. In the presence of the fixed concentration of ascorbic acid, 1 mmol/Liter, an increasing amount of broccoli seed extract (about 12% glucoraphanin, w/w) was added, ranging from 250 mg to 500 mg. PART 2. While keeping the amount of broccoli seed extract fixed at 250 mg, the concentration of ascorbic acid was varied from 0.4 mmol/Liter to 3.8 mmol/Liter.

[1] = system: broccoli sprout-derived myrosinase; experiment: Consumption of glucoraphanin by myrosinase as a function of ascorbic acid concentration (Example 3); type: biochemical
Description: A […] Interaction Chromatographic (HILIC) method was developed, comprising the following conditions: • Column: Waters BEH Amide, 1.7-μm particle size; 2.1 mm×100 mm; • Mobile Phase: 20% 10 mM Ammonium Acetate, pH 5.0; 80% acetonitrile; • Separation mode: isocratic; • Column Temperature: 70° C.; • Flow Rate: 0.7 mL/min.
About 250 mg of broccoli seed extract containing about 12% (w/w) glucoraphanin were subjected to hydrolysis by a fixed concentration of broccoli sprout-derived myrosinase in the presence of variable concentration of ascorbic acid, ranging from 0 to 600 μmoles/Liter. The reaction mixtures were thermostated at 38° C.; aliquots were withdrawn every 15 minutes for 60 minutes, and concentration of glucoraphanin determined chromatographically. The rate of glucoraphanin consumption was interpreted as the rate its conversion to sulforaphane. Graphical representation of glucoraphanin content reduction as a function of increasing ascorbic acid concentration results in a series of linear plots; the slopes of the linear regression lines reflect the rate of glucoraphanin consumption, in pmoles/minute. It is apparent that in the presence of 600 μmoles/Liter concentration of ascorbic acid, the reaction rate increased 13-fold relative to that which proceeded in the absence of modulatory effects of ascorbic acid.

[2] = GR 250 mg AA 0.0 mM (control), 0 min
[3] = GR 250 mg AA 0.0 mM (control), 30 min
[4] = GR 250 mg AA 0.0 mM (control), 60 min
[5] = GR 250 mg AA 0.0 mM (control), 90 min
[6] = GR 250 mg AA 0.0 mM (control), 120 min
[7] = PART 1, GR 250 mg AA 1.0 mM, 0 min
[8] = PART 2, GR 250 mg AA 1.0 mM, 0 min

C[S+]([O-])CCCC/C(=N\OS(=O)(=O)O)S[C@@H]1O[C@H](CO)[C@@H](O)[C@H](O)[C@H]1O (some centres unmarked) [GR, 4-methylsulfinylbutyl glucosinolate]
Glucoraphanin (myrosinase; [2]): 58.02 µmol
Sulforaphane (myrosinase; [2]): 3.42 µmol
Glucoraphanin (myrosinase; [3]): 48.57 µmol
Sulforaphane (myrosinase; [3]): 12.08 µmol
Glucoraphanin (myrosinase; [4]): 37.52 µmol
Sulforaphane (myrosinase; [4]): 22.27 µmol
Glucoraphanin (myrosinase; [5]): 28.58 µmol
Sulforaphane (myrosinase; [5]): 33.17 µmol
Glucoraphanin (myrosinase; [6]): 15.67 µmol
Sulforaphane (myrosinase; [6]): 42.89 µmol
Glucoraphanin (myrosinase; GR 250 mg AA 0.4 mM, 0 min): 45.66 µmol
Sulforaphane (myrosinase; GR 250 mg AA 0.4 mM, 0 min): 15.96 µmol
Sulforaphane (myrosinase; GR 250 mg AA 0.4 mM, 30 min): 62.06 µmol
Sulforaphane (myrosinase; GR 250 mg AA 0.4 mM, 60 min): 61.01 µmol
Sulforaphane (myrosinase; GR 250 mg AA 0.4 mM, 90 min): 60.88 µmol
Sulforaphane (myrosinase; GR 250 mg AA 0.4 mM, 120 min): 56.90 µmol
Glucoraphanin (myrosinase; GR 250 mg AA 2.0 mM, 0 min): 24.94 µmol
Sulforaphane (myrosinase; GR 250 mg AA 2.0 mM, 0 min): 36.05 µmol
Sulforaphane (myrosinase; GR 250 mg AA 2.0 mM, 30 min): 60.85 µmol
Sulforaphane (myrosinase; GR 250 mg AA 2.0 mM, 60 min): 59.78 µmol
Sulforaphane (myrosinase; GR 250 mg AA 2.0 mM, 90 min): 59.85 µmol
Sulforaphane (myrosinase; GR 250 mg AA 2.0 mM, 120 min): 58.08 µmol
Glucoraphanin (myrosinase; GR 250 mg AA 2.9 mM, 0 min): 22.24 µmol
Sulforaphane (myrosinase; GR 250 mg AA 2.9 mM, 0 min): 38.20 µmol
Sulforaphane (myrosinase; GR 250 mg AA 2.9 mM, 30 min): 59.95 µmol
Sulforaphane (myrosinase; GR 250 mg AA 2.9 mM, 60 min): 59.34 µmol
Sulforaphane (myrosinase; GR 250 mg AA 2.9 mM, 90 min): 58.77 µmol
Sulforaphane (myrosinase; GR 250 mg AA 2.9 mM, 120 min): 56.99 µmol
Glucoraphanin (myrosinase; GR 250 mg AA 3.8 mM, 0 min): 21.70 µmol
Sulforaphane (myrosinase; GR 250 mg AA 3.8 mM, 0 min): 37.87 µmol
Sulforaphane (myrosinase; GR 250 mg AA 3.8 mM, 30 min): 58.77 µmol
Sulforaphane (myrosinase; GR 250 mg AA 3.8 mM, 60 min): 57.79 µmol
Sulforaphane (myrosinase; GR 250 mg AA 3.8 mM, 90 min): 58.41 µmol
Sulforaphane (myrosinase; GR 250 mg AA 3.8 mM, 120 min): 56.17 µmol
Glucoraphanin (myrosinase; GR 300 mg AA 1.0 mM, 0 min): 49.31 µmol
Sulforaphane (myrosinase; GR 300 mg AA 1.0 mM, 0 min): 24.18 µmol
Sulforaphane (myrosinase; GR 300 mg AA 1.0 mM, 30 min): 74.40 µmol
Sulforaphane (myrosinase; GR 300 mg AA 1.0 mM, 60 min): 73.04 µmol
Sulforaphane (myrosinase; GR 300 mg AA 1.0 mM, 90 min): 72.19 µmol
Sulforaphane (myrosinase; GR 300 mg AA 1.0 mM, 120 min): 70.56 µmol
Glucoraphanin (myrosinase; GR 350 mg AA 1.0 mM, 0 min): 61.41 µmol
Sulforaphane (myrosinase; GR 350 mg AA 1.0 mM, 0 min): 25.00 µmol
Sulforaphane (myrosinase; GR 350 mg AA 1.0 mM, 30 min): 84.92 µmol
Sulforaphane (myrosinase; GR 350 mg AA 1.0 mM, 60 min): 84.02 µmol
Sulforaphane (myrosinase; GR 350 mg AA 1.0 mM, 90 min): 83.19 µmol
Sulforaphane (myrosinase; GR 350 mg AA 1.0 mM, 120 min): 80.02 µmol
Glucoraphanin (myrosinase; GR 400 mg AA 1.0 mM, 0 min): 71.35 µmol
Sulforaphane (myrosinase; GR 400 mg AA 1.0 mM, 0 min): 26.71 µmol
Glucoraphanin (myrosinase; GR 400 mg AA 1.0 mM, 30 min): 1.56 µmol
Sulforaphane (myrosinase; GR 400 mg AA 1.0 mM, 30 min): 96.60 µmol
Sulforaphane (myrosinase; GR 400 mg AA 1.0 mM, 60 min): 95.38 µmol
Sulforaphane (myrosinase; GR 400 mg AA 1.0 mM, 90 min): 93.39 µmol
Sulforaphane (myrosinase; GR 400 mg AA 1.0 mM, 120 min): 91.16 µmol
Glucoraphanin (myrosinase; GR 500 mg AA 1.0 mM, 0 min): 89.41 µmol
Sulforaphane (myrosinase; GR 500 mg AA 1.0 mM, 0 min): 33.52 µmol
Glucoraphanin (myrosinase; GR 500 mg AA 1.0 mM, 30 min): 1.01 µmol
Sulforaphane (myrosinase; GR 500 mg AA 1.0 mM, 30 min): 120.16 µmol
Sulforaphane (myrosinase; GR 500 mg AA 1.0 mM, 60 min): 116.45 µmol
Sulforaphane (myrosinase; GR 500 mg AA 1.0 mM, 90 min): 118.45 µmol
Sulforaphane (myrosinase; GR 500 mg AA 1.0 mM, 120 min): 112.34 µmol
Glucoraphanin (myrosinase; [7]): 40.07 µmol
Sulforaphane (myrosinase; [7]): 21.51 µmol
Sulforaphane (myrosinase; PART 1, GR 250 mg AA 1.0 mM, 30 min): 61.95 µmol
Sulforaphane (myrosinase; PART 1, GR 250 mg AA 1.0 mM, 60 min): 60.20 µmol
Sulforaphane (myrosinase; PART 1, GR 250 mg AA 1.0 mM, 90 min): 60.04 µmol
Sulforaphane (myrosinase; PART 1, GR 250 mg AA 1.0 mM, 120 min): 58.25 µmol
Glucoraphanin (myrosinase; [8]): 35.24 µmol
Sulforaphane (myrosinase; [8]): 26.49 µmol
Sulforaphane (myrosinase; PART 2, GR 250 mg AA 1.0 mM, 30 min): 62.19 µmol
Sulforaphane (myrosinase; PART 2, GR 250 mg AA 1.0 mM, 60 min): 60.62 µmol
Sulforaphane (myrosinase; PART 2, GR 250 mg AA 1.0 mM, 90 min): 60.41 µmol
Sulforaphane (myrosinase; PART 2, GR 250 mg AA 1.0 mM, 120 min): 59.10 µmol
time to complete conversion of glucoraphanin to sulforaphane (myrosinase; almost all the reaction mixtures): ≤ 30 min
stoichiometry of conversion of glucoraphanin to sulforaphane (myrosinase; control sample, without ascorbic acid): equimolar conversion of glucoraphanin to sulforaphane
Slope (rate of glucoraphanin consumption) ([1]; ascorbic acid 0 μM): -0.09293 µmol/min
Glucoraphanin content (μmoles GR) ([1]; ascorbic acid 0 μM, 0 min): 93.36 µmol
Glucoraphanin content (μmoles GR) ([1]; ascorbic acid 0 μM, 15 min): 92.24 µmol
Glucoraphanin content (μmoles GR) ([1]; ascorbic acid 0 μM, 30 min): 90.71 µmol
Glucoraphanin content (μmoles GR) ([1]; ascorbic acid 0 μM, 45 min): 89.44 µmol
Glucoraphanin content (μmoles GR) ([1]; ascorbic acid 0 μM, 60 min): 87.79 µmol
Slope (rate of glucoraphanin consumption) ([1]; ascorbic acid 50 μM): -0.286 µmol/min
Glucoraphanin content (μmoles GR) ([1]; ascorbic acid 50 μM, 0 min): 93.36 µmol
Glucoraphanin content (μmoles GR) ([1]; ascorbic acid 50 μM, 15 min): 89.20 µmol
Glucoraphanin content (μmoles GR) ([1]; ascorbic acid 50 μM, 30 min): 84.24 µmol
Glucoraphanin content (μmoles GR) ([1]; ascorbic acid 50 μM, 45 min): 80.30 µmol
Glucoraphanin content (μmoles GR) ([1]; ascorbic acid 50 μM, 60 min): 76.36 µmol
Slope (rate of glucoraphanin consumption) ([1]; ascorbic acid 125 μM): -0.5622 µmol/min
Glucoraphanin content (μmoles GR) ([1]; ascorbic acid 125 μM, 0 min): 93.36 µmol
Glucoraphanin content (μmoles GR) ([1]; ascorbic acid 125 μM, 15 min): 84.52 µmol
Glucoraphanin content (μmoles GR) ([1]; ascorbic acid 125 μM, 30 min): 75.92 µmol
Glucoraphanin content (μmoles GR) ([1]; ascorbic acid 125 μM, 45 min): 68.09 µmol
Glucoraphanin content (μmoles GR) ([1]; ascorbic acid 125 μM, 60 min): 59.41 µmol
Slope (rate of glucoraphanin consumption) ([1]; ascorbic acid 250 μM): -0.7901 µmol/min
Slope (rate of glucoraphanin consumption) ([1]; ascorbic acid 250 μM Filtered): -0.4714 µmol/min
Glucoraphanin content (μmoles GR) ([1]; ascorbic acid 250 μM Filtered, 0 min): 93.36 µmol
Glucoraphanin content (μmoles GR) ([1]; ascorbic acid 250 μM Filtered, 15 min): 86.31 µmol
Glucoraphanin content (μmoles GR) ([1]; ascorbic acid 250 μM Filtered, 30 min): 79.44 µmol
Glucoraphanin content (μmoles GR) ([1]; ascorbic acid 250 μM Filtered, 45 min): 71.94 µmol
Glucoraphanin content (μmoles GR) ([1]; ascorbic acid 250 μM Filtered, 60 min): 65.18 µmol
Glucoraphanin content (μmoles GR) ([1]; ascorbic acid 250 μM, 0 min): 93.36 µmol
Glucoraphanin content (μmoles GR) ([1]; ascorbic acid 250 μM, 15 min): 80.95 µmol
Glucoraphanin content (μmoles GR) ([1]; ascorbic acid 250 μM, 30 min): 69.06 µmol
Glucoraphanin content (μmoles GR) ([1]; ascorbic acid 250 μM, 45 min): 57.63 µmol
Glucoraphanin content (μmoles GR) ([1]; ascorbic acid 250 μM, 60 min): 45.76 µmol
Slope (rate of glucoraphanin consumption) ([1]; ascorbic acid 400 μM): -1.007 µmol/min
Glucoraphanin content (μmoles GR) ([1]; ascorbic acid 400 μM, 0 min): 93.36 µmol
Glucoraphanin content (μmoles GR) ([1]; ascorbic acid 400 μM, 15 min): 78.32 µmol
Glucoraphanin content (μmoles GR) ([1]; ascorbic acid 400 μM, 30 min): 62.78 µmol
Glucoraphanin content (μmoles GR) ([1]; ascorbic acid 400 μM, 45 min): 47.67 µmol
Glucoraphanin content (μmoles GR) ([1]; ascorbic acid 400 μM, 60 min): 33.15 µmol
Slope (rate of glucoraphanin consumption) ([1]; ascorbic acid 600 μM): -1.2 µmol/min
Glucoraphanin content (μmoles GR) ([1]; ascorbic acid 600 μM, 0 min): 93.36 µmol
Glucoraphanin content (μmoles GR) ([1]; ascorbic acid 600 μM, 15 min): 75.02 µmol
Glucoraphanin content (μmoles GR) ([1]; ascorbic acid 600 μM, 30 min): 55.66 µmol
Glucoraphanin content (μmoles GR) ([1]; ascorbic acid 600 μM, 45 min): 37.50 µmol
Glucoraphanin content (μmoles GR) ([1]; ascorbic acid 600 μM, 60 min): 22.09 µmol
